Solubility and Prodrug reconversion data for five compounds are collected here from ChEMBL document CHEMBL1132885, “Phosphate prodrugs of PD154075” (Bioorg Med Chem Lett, 2000).

Broadly, the solubility is the dissolved amount per volume that the medium holds. Low values mean little dissolved substance, high ones much dissolved substance.

Data set [1] can be described thus: Solubility in water was determined. Format: physicochemical.
For data set [2], the system named is Rattus norvegicus. Briefly: In vivo percentage of prodrug (Compound) reconversion to PD-154075 from (male Wistar rat) plasma after intravenous administration of the 4.6 mg/ml compound. Format: functional.
Data set [3] deals with Rattus norvegicus. Briefly: In vivo percentage of prodrug (Compound) reconversion to PD-154075 from (male Wistar rat) plasma after intravenous administration of the 5.7 mg/ml compound. Format: functional.
The subject of data set [4] is Rattus norvegicus. Briefly: In vivo percentage of prodrug (Compound) reconversion to PD-154075 from (male Wistar rat) plasma after intravenous administration of the 5.3 mg/mL compound. Format: functional.
In data set [5] the test system is Rattus norvegicus. Briefly: In vivo percentage of prodrug (Compound) reconversion to PD-154075 from (male Wistar rat) plasma after intravenous administration of the 5 mg/ml compound. Format: functional.

Bounds are passed on as bounds.

In data set [1], `CC(NC(=O)[C@@](C)(Cc1c[nH]c2ccccc12)NC(=O)OCc1cc2ccccc2o1)c1ccccc1` (single isomer, unassigned) had a solubility of less than 0.001 mg/mL.

Compound `C[C@@H](NC(=O)[C@@](C)(Cc1cn(C(=O)c2ccccc2COP(=O)([O-])[O-])c2ccccc12)NC(=O)OCc1cc2ccccc2o1)c1ccccc1.[Na+].[Na+]` returned a solubility in data set [1] of 55 mg/mL. Further, the Prodrug reconversion with Rattus norvegicus [2] is 19.9%.

Consider `C[C@@H](NC(=O)[C@@](C)(Cc1cn(P(=O)([O-])[O-])c2ccccc12)NC(=O)OCc1cc2ccccc2o1)c1ccccc1.[Na+].[Na+]`, for which the solubility in data set [1] is 76 mg/mL. Moreover, in the data set on Rattus norvegicus [3], the Prodrug reconversion was determined as 11.7%.

As for `C[C@@H](NC(=O)[C@@](C)(Cc1cn(C(=O)OCOC(=O)c2ccc(COP(=O)([O-])[O-])cc2)c2ccccc12)NC(=O)OCc1cc2ccccc2o1)c1ccccc1.[Na+].[Na+]`, in the data set on Rattus norvegicus [4], the Prodrug reconversion turned out to be 59.5%. Further, the concentration in solution in data set [1] (solubility) was 58 mg/mL.

For the compound `Cc1cc(C)c(C(C)(C)CC(=O)n2cc(C[C@@](C)(NC(=O)OCc3cc4ccccc4o3)C(=O)N[C@H](C)c3ccccc3)c3ccccc32)c(OP(=O)([O-])[O-])c1.[Na+].[Na+]`, in data set [1], the concentration in solution (solubility) came to 31 mg/mL. Moreover, in the data set on Rattus norvegicus [5], the Prodrug reconversion was determined as 9.35%.
